Experimental data as given in US6589962B1, “Alpha-hydroxy-gamma-[[(carbocyclic-or heterocyclic-substituted)amino]carbonyl]alkanamide derivatives and uses thereof” (priority 1999, dated 2003).

Test system: HIV-1 viral constructs Q60, K-60, and V-18
Assay: Cell spread assay (HIV-1 p24 accumulation in MT-4 T-lymphoid cells), mutant viral constructs
Format: cell-based
Conditions: one range stated for the three mutant viral constructs together; MT-4 cells, 4 days postinfection
Description: Inhibition of the spread of HIV in cell culture was measured according to Nunberg et al., J. Virol. […] In this assay, MT-4 T-lymphoid cells were infected with HIV-1 (wild-type, unless otherwise indicated) by using a predetermined inoculum, and cultures were incubated for 24 h. At this time, ≦1% of the cells were positive by indirect immunofluorescence. Cells were then extensively washed and distributed into 96-well culture dishes. Serial twofold dilutions of inhibitor were added to the wells, and cultures were continued for 3 additional days. At 4 days postinfection, 100% of the cells in control cultures were infected. HIV-1 p24 accumulation was directly correlated with virus spread. The cell culture inhibitory concentration was defined as the inhibitor concentration in nanomoles/liter which reduced the spread of infection by at least 95%, or CIC95.

SMILES: CC(C)(C)NC(=O)[C@@H]1CN(Cc2cccnc2)CCN1C[C@@H](O)C[C@@H](Cc1ccccc1)C(=O)N[C@H]1c2ccccc2C[C@H]1O [indinavir, N-(2(R)-hydroxy-1(S)-indanyl)-2(R)-phenylmethyl-4-(S)-hydroxy-5-(1-(4-(3-pyridyl-methyl)-2(S)-N′-(t-butylcarboxamido)-piperazinyl))-pentaneamide]
- CIC95 against the viral constructs Q60, K-60, and V-18: greater than 1000 nM
